Target: PDE 4 enzyme
Assay: PDE 4 enzyme inhibition (SPA)
Type: biochemical
Conditions: PDE 4 purified from human PMNs, cAMP 1 μM, 40 minutes at 30° C.
Source text: Evaluation of the PDE 4 Enzyme Inhibition a) Purification of Human Polymorphonucleate Leukocytes
The polymorphonucleate leukocytes (PMNs) were isolated from peripheral blood of healthy volunteers according to what described by Boyum A., Scand. J. Immunol., 1976, 5th suppl., 9). Shortly, the isolation of the PMNs was effected by Ficoll-Paque gradient centrifugation followed by sedimentation on dextrane and the erythrocyte contamination was eliminated by hypotonic lysis. […]
b) PDE 4 Enzyme Purification
The human PMNs were re-suspended in TRIS/HCl buffer (10 mM pH 7.8) containing MgCl2 (5 mM), EGTA (4 mM), mercaptoethanol (5 mM), TRlTON-X100 (1%), pepstatin A (1 μM), PMSF (100 μM) and leupeptin (1 μM), and homogenised by Polytron. […]
The enzyme activity was evaluated with an Amersham kit based on the SPA (Scintillation Proximity Assay) technique. […] The radioactivity due to the particles was measured in a […]. The results are expressed as percent activity versus the control present in each experiment. The IC50 values were calculated over 9 equidistant concentrations in logarithmic scale using a 4-parameters logistic function by software.

COc1ccc2c(Cc3c(Cl)cncc3Cl)nn3c(C)nnc3c2c1 [Compound 2, 6-(3,5-Dichloro-pyridin-4-ylmethyl)-9-methoxy-3-methyl-[1,2,4]-triazole-[3,4-a]-phthalazine]
IC50: 207 nM

Source: patent US6525055B1, “Tricyclic phthalazine derivatives as phosphodiesterase 4 inhibitors” (Zambon Group S.p.A., priority 1998, dated 2003)
